Experimental findings from patent US3948928A, “3-Substituted-1,2-benzisoxazoles and pharmaceutically acceptable acid addition salts thereof” (Dainippon Pharmaceutical Co., Ltd., priority 1972, dated 1976) are described below.

In test [1] the test system is renal hypertensive rats. Briefly: Anti-hypertensive activity in renal hypertensive rats (plethysmographic tail blood pressure). It is filed as in vivo, male Wistar rats.
Description: Male Wistar rats weighing 180 to 200 g and having a blood pressure of 125 to 145 mmHg were anesthetized with ether and the left abdominal wall of rats was cut and thereby the renal artery was laid bare. The origin part of the aorta was stripped off and to the renal artery was fixed a silver clip which was made by two-folding at interval of 0.2 mm a silver thin board having 2.0 mm in width, 6.0 mm in length and 0.3 mm in thickness, and then the abdominal wall was stitched. At 2 months after the operation, the blood pressure of the rats was increased to 150 or more mmHg. The rats thus treated were used in the test as the renal hypertensive rats.
The blood pressure was measured before the administration of test compounds and at 0.5, 1, 3, 5, 7, 9 and 24 hours after the administration of the test compounds.
For test [2], the system named is spontaneously hypertensive rats. Briefly: Anti-hypertensive activity in spontaneously hypertensive rats. It is filed as in vivo, male Wistar rats. As to the method: The blood pressure was measured by plethysmographic method, in which the blood pressure was measured indirectly by using a tail of animal without anesthesia. That is, after being warmed at 38°C for 10 minutes, a tail of rat was pressed by cuff and then the pressure was relieved and thereby the blood flow started again to increase the volume of tail. The blood pressure at that time was measured.
Spontaneously hypertensive rats were prepared by using male Wistar rats weighing 300 to 350 g and being 20 or more weeks of age. […] The blood pressure in rats was measured at 0.5, 1, 3, 5, 7, 24 and 30 hours after the administration of the test compounds in the same manner as described in Test 3, (B).

Test [3] relates to hypothermy induced by reserpine. Briefly: Anti-reserpine activity: antagonism against the hypothermy induced by reserpine. It is filed as in vivo, male dd YS-mice. The conditions noted are these: 100 mg/kg orally; for Inhibition (%): reserpine 5 mg/kg i.p. simultaneously, rectal temperature at 4 hours; for Ratio to AMT: inhibition relative to amitriptyline (AMT).
Protocol: The anti-reserpine activity of the test compounds was studied by the antagonism against the hypothermy induced by reserpine on male dd YS-mice, weighing 18 to 20 g, each group being 5 mice. The test compounds were orally administered in a dose of 100 mg/kg and simultaneously reserpine was intraperitoneally administered in a dose of 5 mg/kg to the mice. The body temperature was measured on the rectal temperature of the mice at 4 hours after the administration of the test compounds by thermister BMG III-130, made by Shibaura Electric Co., Ltd.
For test [4], the system named is 1-dopa potentiating activity. Briefly: 1-Dopa potentiating activity (mortality of mice given 1-dopa). The settings on record: one hour before 1-dopa 300 mg/kg i.p. It is filed as in vivo, dd YS-mice. As for the experimental part:
To dd YS-mice, weighing 18 to 20 g (each group being 10 mice) was intraperitoneally administered 300 mg/kg of 1-dopa: 3-(3,4-dihydroxyphenyl)-L-alanine. The mice were entered into a plastic cage having 15 × 15 cm^2 in size and allowed to live gregariously and then the symptom of the mice was observed. The test compounds were orally administered to the mice at one hour before the administration of 1-dopa. The activity of the test compounds was calculated by the mortality.

Counter-ions that a name gives are not always drawn.

Regarding `N=C(Cc1noc2ccccc12)N1CCN(c2ccccc2)CC1` [Test compound 4 (Table 3), 1-Phenyl-4-(1,2-benzisoxazole-3-acetimidoyl)piperazine hydrochloride], in test [1] (100 mg/kg p.o.), the “Blood pressure Decrease percent” value came to 10.7%, the “Blood pressure Duration” value is 30 h and the “Blood pressure Peak time” value stood at 3 h.

In the case of `CNC(=N)Cc1noc2ccccc12` [Test compound 5 (Table 3), 1,2-Benzisoxazole-3-(N-methyl)acetamidine hydrochloride], in test [1] (100 mg/kg p.o.), the “Blood pressure Decrease percent” value turned out to be 19.3%, the “Blood pressure Duration” value stood at 24 h and the “Blood pressure Peak time” value was 3 h.

For `Cl.Fc1ccc2onc(CC3=NCCN3)c2c1` [Test compound 4 (Table 4), 5-Fluoro-3-(2-imidazolin-2-yl)methyl-1,2-benzisoxazole hydrochloride], in test [2] (10 mg/kg p.o.), the “Blood pressure Decrease percent” value is reported as 28%, the “Blood pressure Duration” value was found to be 30 h and the “Blood pressure Peak time” value turned out to be 7.0 h.

With “6,7-dimethoxy-1,2-benzisoxazole-3-acetamidoxime hydrochloride [Example 7]”, in test [1] (100 mg/kg p.o.), the “Blood pressure Decrease percent” value came to 21.0%, the “Blood pressure Duration” value stood at 72 h and the “Blood pressure Peak time” value came to 5 h.

`NC(Cc1noc2ccccc12)=NOC(=O)c1ccccc1` [Test compound 3 (Table 1), O-Benzoyl-1,2-benzisoxazole-3-acetamidoxime]: in test [3], the “Inhibition (%)” value was determined as 57.1% and the “Ratio to AMT” value was 1.17.

In the case of `COc1ccc2c(CC(N)=NO)noc2c1.Cl` [Test compound 5 (Table 1), 6-Methoxy-1,2-benzisoxazole-3-acetamidoxime hydrochloride], in test [3], the “Inhibition (%)” value is listed as 69.2% and the “Ratio to AMT” value is listed as 1.42.

Consider `Cl.N=C(N)Cc1noc2ccccc12` [Test compound 2 (Table 3), 1,2-Benzisoxazole-3-acetamidine hydrochloride], for which, in test [1] (100 mg/kg p.o.), the “Blood pressure Decrease percent” value was found to be 34.4%, the “Blood pressure Duration” value turned out to be 30 h and the “Blood pressure Peak time” value fell in the range of 1 to 3 h.

For `NC12CC3CC(CC(C3)C1)C2` [Amantadine, 1-aminoadamantane, reference compound], the “Number of dead mice/number of used mice” value in test [4] (dose 100 mg/kg orally) is 0/10; in test [4] (dose 200 mg/kg orally), 3/10; in test [4] (dose 300 mg/kg orally), 5/10.

For the compound `Cl.NC(CCc1noc2ccccc12)=NO` [Test compound 6 (Table 1), 1,2-Benzisoxazole-3-propionamidoxime hydrochloride], in test [3], the “Inhibition (%)” value amounted to 58.1% and the “Ratio to AMT” value is 1.12.

As to `Cl.NC(Cc1noc2ccccc12)=NO` [Test compound 2 (Table 1), 1,2-Benzisoxazole-3-acetamidoxime hydrochloride], in test [3], the “Inhibition (%)” value is 64.9% and the “Ratio to AMT” value stood at 1.33.

As to `Cl.Oc1ccc2c(CC3=NCCN3)noc2c1` [Test compound 7 (Table 3), 6-Hydroxy-3-(2-imidazolin-2-yl)methyl-1,2-benzisoxazole hydrochloride], in test [2] (10 mg/kg p.o.), the “Blood pressure Decrease percent” value was determined as 14%, the “Blood pressure Duration” value turned out to be 9 h and the “Blood pressure Peak time” value was determined as 7.0 h.

On to `Cc1cccc2c(CC3=NCCN3)noc12.Cl` [Test compound 4 (Table 1), 7-Methyl-3-(2-imidazolin-2-yl)methyl-1,2-benzisoxazole hydrochloride], for which, in test [3], the “Inhibition (%)” value is on record as 51.9% and the “Ratio to AMT” value was found to be 1.06.

For `Cl.Oc1ccc2onc(CC3=NCCN3)c2c1` [Test compound 6 (Table 3), 5-Hydroxy-3-(2-imidazolin-2-yl)methyl-1,2-benzisoxazole hydrochloride], in test [1] (100 mg/kg p.o.), the “Blood pressure Decrease percent” value came out at 56.5%, the “Blood pressure Duration” value was determined as 30 h and the “Blood pressure Peak time” value turned out to be 5 h.

For the compound “1,2-Benzisoxazole-3-acetamidoxime [Example 1]”, in test [3], the “Inhibition (%)” value amounted to 66.9%. Also, the “Ratio to AMT” value in test [3] stood at 1.37. The “Blood pressure Decrease percent” value in test [1] (3 mg/kg p.o.) was 18.2%; in test [1] (10 mg/kg p.o.) it was 36.3%; in test [1] (30 mg/kg p.o.), 38.8%; in test [2] (10 mg/kg p.o.), 16%. Further, the “Blood pressure Duration” value is 24 h in test [1] (3 mg/kg p.o.), 30 h in test [1] (10 mg/kg p.o.), 48 h in test [1] (30 mg/kg p.o.) and 24 h in test [2] (10 mg/kg p.o.). Besides, the “Blood pressure Peak time” value came to 7 h in test [1] (3 mg/kg p.o.), 7 h in test [1] (10 mg/kg p.o.), 3 h in test [1] (30 mg/kg p.o.) and 5.0 h in test [2] (10 mg/kg p.o.). Further, the “Number of dead mice/number of used mice” value in test [4] (dose 20 mg/kg orally) was 1/10; in test [4] (dose 50 mg/kg orally) it was 3/10; in test [4] (dose 100 mg/kg orally), 7/10.

Regarding `Cl.NC(Cc1noc2ccc(F)cc12)=NO` [Test compound 3 (Table 4), 5-Fluoro-1,2-benzisoxazole-3-acetamidoxime hydrochloride], in test [2] (1 mg/kg p.o.), the “Blood pressure Decrease percent” value worked out at 20%, the “Blood pressure Duration” value stood at 24 h and the “Blood pressure Peak time” value fell in the range of 7 to 8 h. In test [2] (10 mg/kg p.o.), the “Blood pressure Decrease percent” value is recorded as 22%, the “Blood pressure Duration” value came out at 24 h and the “Blood pressure Peak time” value was determined as 7.0 h.

For the compound `Cl.N=C(Cc1noc2ccccc12)NN` [Test compound 3 (Table 3), 1,2-Benzisoxazole-3-acetamidrazone hydrochloride], in test [1] (100 mg/kg p.o.), the “Blood pressure Decrease percent” value was determined as 19.0%, the “Blood pressure Duration” value worked out at 24 h and the “Blood pressure Peak time” value was determined as 7 h.

With `CN(C)CCC=C1c2ccccc2CCc2ccccc21` [Amitriptyline, 3-(10,11-Dihydro-5H-dibenzo[a,d]-cyclohepten-5-ylidene)-N,N-dimethylpropylamine, reference compound], the “Inhibition (%)” value in test [3] was found to be 48.9%.
